Results taken from US20250288603A1, “ANIMAL FOOD COMPOSITION COMPRISING A SOURCE OF GLYCYRRHIZIN” (MARS, INCORPORATED, priority 2022, published 2025).

Experiments:
healthy adult dogs [1] = assay: Glycyrrhizin safety study: fractional potassium excretion; type: in vivo, dog; conditions: for effect on fractional potassium excretion, D0 versus any later time point: adult dogs, 0.2, 0.4 and 0.6 mg/kg Bwt/day, 28 days each; for overall mean fractional potassium excretion: dogs
Description: (§1) Dogs. Sixteen privately owned healthy adult dogs, both male and female, were included in the study. In particular, the dogs were Beagles, Brittany spaniels or Dachshunds weighing between 5 and 21 kg. Twelve dogs were females and four dogs were males.
(§2) Glycyrrhizin Source. The glycyrrhizin source was provided by a licorice root extract comprising 12% glycyrrhizin formulated in gelatin capsules. The licorice root extract was commercially obtained from Naturex (Avignon, France), product reference DAB40178.
(§3) Commercially available pharmaceutical grade gelatin capsules (Capsuline, Dania Beach, Florida, US) were filled to capacity with precisely weight mixtures of licorice powder and 100% pure maltodextrin powder (Bulk Powders, Colchester, UK). The weighed combinations of licorice and maltodextrin powders were prepared in such a way that, when mixed together and placed in the capsules, provided the dogs with daily glycyrrhizin doses according to the schedule of 0.2 mg/kg Bwt/day, followed by 0.4 mg/kg Bwt/day, followed by 0.6 mg/kg Bwt/day.
(§4) Dosage. The doses to be administered to each dog were calculated based on five different bodyweight groups. Separate capsules were weighed out for each group. The licorice root extract was mixed with maltodextrin order to deliver the same volume of overall powdered material to each dog. Capsules were fed to the dogs inside a meatball of wet petfood.
(§5) In total, three different doses of glycyrrhizin were fed to the dogs, in each case for 28 days. These dosages were 0.2 mg/kg of Bwt/day, 0.4 mg/kg of Bwt/day, and 0.6 mg/kg of Bwt/day.
(§6) Each of the dogs underwent the following protocol cycle, which was repeated for each of the tested concentrations. The first cycle was dosed at 0.2 mg of glycyrrhizin (Gly)/kg Bwt/day. The second cycle was dosed at 0.4 mg Gly/kg Bwt/day. The third cycle was dosed at 0.6 mg Gly/kg Bwt/day.
(§7) Days 2, 4, 7, 14, 21 and 28: Blood pressure and potassium, sodium and calcium, creatinine and aldosterone concentrations in the blood and urine measurements were taken.
Small volume blood samples (4 ml) were taken on the days indicated in the protocol description above in order to determine blood potassium, sodium and calcium, creatinine and aldosterone concentration. Free catch urine (minimum 3 ml) was conducted on each day as indicated above in order to determine concentrations of urinary potassium, sodium and calcium. Urinary creatinine concentrations were also measured so that Fractional Excretion Rate (FER) for sodium, potassium and calcium could be calculated.
FER is calculated according to the equation: […]
Statistics: A linear mixed model was used for assessing the effect of Diet (Glycyrrhizin dose). Animal was modelled as random term. Tukey HSD was used for alpha correction for multiple comparisons. Level of significance was set at 5% for two-sided test.
Fractional Potassium Excretion. The results are expressed in percentage of the potassium excreted in the urine as compared to the amount of potassium filtered and retained by the kidneys.

healthy adult dogs [2] = assay: Glycyrrhizin safety study: plasma aldosterone concentration; type: in vivo, dog; conditions: adult dogs, 0.2, 0.4 and 0.6 mg/kg Bwt/day, 28 days each
Description: as §1, §2
Commercially available pharmaceutical grade gelatin capsules (Capsuline, Dania Beach, Florida, US) were filled to capacity with precisely weight mixtures of licorice powder and 100% pure maltodextrin powder (Bulk Powders, Colchester, UK). […]
Dosage. The doses to be administered to each dog were calculated based on five different bodyweight groups. […]
Small volume blood samples (4 ml) were taken on the days indicated in the protocol description above in order to determine blood potassium, sodium and calcium, creatinine and aldosterone concentration. […] Urinary creatinine concentrations were also measured so that Fractional Excretion Rate (FER) for sodium, potassium and calcium could be calculated. […]

healthy adult dogs [3] = assay: Glycyrrhizin safety study: systolic blood pressure (oscillometric method); type: in vivo, dog; conditions: for effect on blood pressure, D0 versus any later time point: adult dogs, 0.2, 0.4 and 0.6 mg/kg Bwt/day, 28 days each; for overall mean systolic blood pressure: dogs
Description: as §1, §2, §3, §4, §5, §6
Day 1: Baseline measurements were taken: blood pressure and potassium, sodium and calcium, creatinine and aldosterone concentrations in the blood and urine.
Day 0: Dosing of licorice began (the concentration of glycyrrhizin is adapted according to the first, second or third cycle of the protocol, as indicated above). One dose was provided to each dog per day, with their morning meal.
Days 1-27: One dose was provided to each dog per day, with their morning meal.
as §7
Day 28: Washout began and the dogs returned to their maintenance diet alone, i.e., no more licorice was fed to them. The washout period lasted two weeks. At days 34 and 41 blood pressure and potassium, sodium and calcium, creatinine and aldosterone concentrations in the blood and urine measurements were taken again.
Protocol Details. The licorice root extract was dosed according to the given glycyrrhizin (Gly) concentrations for each cycle of the protocol in sequence: 0.2 mg/kg Bwt/day, 0.4 mg/kg Bwt/day, and 0.6 mg/kg Bwt/day.
Blood pressure was measured for each animal on multiple occasions, the first reading being discarded. BP was measured via the Oscillometric method. Each measurement, if it was shown that a dog's average blood pressure has risen to a potentially deleterious level (normally >160 mmgHg), could result in removal of a dog from the study (temporarily or permanently), according to veterinarian's discretion. All dogs were habituated to the Oscillometic device and the process of BP measurement before the start of the study. If there was evidence of stress for any dog before or during the BP procedure, the procedure for that dog was stopped and restarted when the dog was calmed again. Where necessary a dog could be given interim intensive habituation. […] Typical blood pressure ranges for the 3 breeds used were known and were considered when judging the normality of the BP measurements taken during the study. […]

[4] = dogs; cited from earlier work
[5] = 0.2 mg Gly/kg Bwt/day oral, Day 0
[6] = 0.2 mg Gly/kg Bwt/day oral, Day 2
[7] = 0.2 mg Gly/kg Bwt/day oral, Day 4
[8] = 0.2 mg Gly/kg Bwt/day oral, Day 7
[9] = 0.2 mg Gly/kg Bwt/day oral, Day 14
[10] = 0.2 mg Gly/kg Bwt/day oral, Day 21
[11] = 0.2 mg Gly/kg Bwt/day oral, Day 28
[12] = 0.4 mg Gly/kg Bwt/day oral, Day 0
[13] = 0.4 mg Gly/kg Bwt/day oral, Day 2
[14] = 0.4 mg Gly/kg Bwt/day oral, Day 4
[15] = 0.4 mg Gly/kg Bwt/day oral, Day 7
[16] = 0.4 mg Gly/kg Bwt/day oral, Day 14
[17] = 0.4 mg Gly/kg Bwt/day oral, Day 21
[18] = 0.4 mg Gly/kg Bwt/day oral, Day 28
[19] = 0.6 mg Gly/kg Bwt/day oral, Day 0
[20] = 0.6 mg Gly/kg Bwt/day oral, Day 2
[21] = 0.6 mg Gly/kg Bwt/day oral, Day 4
[22] = 0.6 mg Gly/kg Bwt/day oral, Day 7
[23] = 0.6 mg Gly/kg Bwt/day oral, Day 14
[24] = 0.6 mg Gly/kg Bwt/day oral, Day 21
[25] = 0.6 mg Gly/kg Bwt/day oral, Day 28

In the case of CC1(C)[C@@H](O[C@H]2O[C@H](C(=O)O)[C@@H](O)[C@H](O)[C@H]2O[C@@H]2O[C@H](C(=O)O)[C@@H](O)[C@H](O)[C@H]2O)CC[C@]2(C)[C@H]3C(=O)C=C4[C@@H]5C[C@@](C)(C(=O)O)CC[C@]5(C)CC[C@@]4(C)[C@]3(C)CC[C@@H]12 [Gly, glycyrrhizin], the “effect on fractional potassium excretion, D0 versus any later time point” value (healthy adult dogs [1]) is reported as “no significant difference”, the “effect on fractional potassium excretion, D0 versus any later time point” value (healthy adult dogs [1]; listed as Glycyrrhizin) is reported as “no significant impact” and the “overall mean fractional potassium excretion” value (healthy adult dogs [1]; [5]) is reported as 16.54%. The “overall mean fractional potassium excretion” value (healthy adult dogs [1]; [6]) was 15.74%, the “overall mean fractional potassium excretion” value (healthy adult dogs [1]; [7]) was 15.59% and the “overall mean fractional potassium excretion” value (healthy adult dogs [1]; [8]) was 15.06%. For the same molecule, the “overall mean fractional potassium excretion” value (healthy adult dogs [1]; [9]) was 13.33%, the “overall mean fractional potassium excretion” value (healthy adult dogs [1]; [10]) was 20.02% and the “overall mean fractional potassium excretion” value (healthy adult dogs [1]; [11]) was 16.54%. The “overall mean fractional potassium excretion” value (healthy adult dogs [1]; [12]) was 16.02%, the “overall mean fractional potassium excretion” value (healthy adult dogs [1]; [13]) was 15.56% and the “overall mean fractional potassium excretion” value (healthy adult dogs [1]; [14]) was 16.02%. The “overall mean fractional potassium excretion” value (healthy adult dogs [1]; [15]) was 15.72%, the “overall mean fractional potassium excretion” value (healthy adult dogs [1]; [16]) was 16.87% and the “overall mean fractional potassium excretion” value (healthy adult dogs [1]; [17]) was 16.09%. For the same molecule, the “overall mean fractional potassium excretion” value (healthy adult dogs [1]; [18]) was 16.27%, the “overall mean fractional potassium excretion” value (healthy adult dogs [1]; [19]) was 16.48% and the “overall mean fractional potassium excretion” value (healthy adult dogs [1]; [20]) was 18.08%. The “overall mean fractional potassium excretion” value (healthy adult dogs [1]; [21]) was 17.48%, the “overall mean fractional potassium excretion” value (healthy adult dogs [1]; [22]) was 13.15% and the “overall mean fractional potassium excretion” value (healthy adult dogs [1]; [23]) was 15.64%. For the same molecule, the “overall mean fractional potassium excretion” value (healthy adult dogs [1]; [24]) was 14.93%, the “overall mean fractional potassium excretion” value (healthy adult dogs [1]; [25]) was 16.48% and the “effect on plasma aldosterone concentration, D0 versus any later time point” value (healthy adult dogs [2]) was “no significant difference”. The “effect on plasma aldosterone concentration, D0 versus any later time point” value (healthy adult dogs [2]; listed as Glycyrrhizin) was “no significant impact”, the “effect on blood pressure, D0 versus any later time point” value (healthy adult dogs [3]) was “no significant difference” and the “effect on blood pressure, D0 versus any later time point” value (healthy adult dogs [3]; listed as Glycyrrhizin) was “no significant impact”. The “overall mean systolic blood pressure” value (healthy adult dogs [3]; [5]) was 120 mmHg, the “overall mean systolic blood pressure” value (healthy adult dogs [3]; [6]) was 127 mmHg and the “overall mean systolic blood pressure” value (healthy adult dogs [3]; [7]) was 125 mmHg. The “overall mean systolic blood pressure” value (healthy adult dogs [3]; [8]) was 126 mmHg, the “overall mean systolic blood pressure” value (healthy adult dogs [3]; [9]) was 126 mmHg and the “overall mean systolic blood pressure” value (healthy adult dogs [3]; [10]) was 122 mmHg. The “overall mean systolic blood pressure” value (healthy adult dogs [3]; [11]) was 121 mmHg, the “overall mean systolic blood pressure” value (healthy adult dogs [3]; [12]) was 118 mmHg and the “overall mean systolic blood pressure” value (healthy adult dogs [3]; [13]) was 117 mmHg. For the same molecule, the “overall mean systolic blood pressure” value (healthy adult dogs [3]; [14]) was 119 mmHg, the “overall mean systolic blood pressure” value (healthy adult dogs [3]; [15]) was 125 mmHg and the “overall mean systolic blood pressure” value (healthy adult dogs [3]; [16]) was 122 mmHg. The “overall mean systolic blood pressure” value (healthy adult dogs [3]; [17]) was 120 mmHg, the “overall mean systolic blood pressure” value (healthy adult dogs [3]; [18]) was 124 mmHg and the “overall mean systolic blood pressure” value (healthy adult dogs [3]; [19]) was 125 mmHg. For the same molecule, the “overall mean systolic blood pressure” value (healthy adult dogs [3]; [20]) was 119 mmHg, the “overall mean systolic blood pressure” value (healthy adult dogs [3]; [21]) was 123 mmHg and the “overall mean systolic blood pressure” value (healthy adult dogs [3]; [22]) was 125 mmHg. For the same molecule, the “overall mean systolic blood pressure” value (healthy adult dogs [3]; [23]) was 123 mmHg, the “overall mean systolic blood pressure” value (healthy adult dogs [3]; [24]) was 124 mmHg and the “overall mean systolic blood pressure” value (healthy adult dogs [3]; [25]) was 122 mmHg. For the same molecule, the “Presumed Safe Intake (PSI)” value [4] was 1 mg/kg of complete feed, the “Presumed Safe Intake (PSI), estimated amount per bodyweight” value [4] was ~0.02 mg/kg of bodyweight (Bwt) per day and the “Presumed Safe Intake (PSI), estimated daily amount” value [4] was ~0.3 mg/day.
